Results taken from US12649723B2, “Carbonohydrazonoyl dicyanide compounds comprising 2 or more aryl or heteroaryl connected via linker and use thereof” (KOREA INSTITUTE OF SCIENCE AND TECHNOLOGY, priority 2020, dated 2026).

What was measured:
tau protein = target: T1, tau protein (Homo sapiens, UniProt P10636); experiment: Tau-BiFC cell model: inhibition of tau protein aggregation; assay type: cell-based; conditions: for remaining activity at 10 µM / remaining activity at 3 µM: 48 h, Forskolin-only group = 100% tau protein-aggregated state; for remaining activity at 10 µM: compound 10 μM, BiFC fluorescence, read-out: Response (% @10 μM); for IC50: Tau BiFC in cells, with Forskolin 30 μM, 48 hours; for remaining activity at 3 µM: compounds marked *: measured at 3 μM, read-out: Response
T1 construct: fused on or other part: Split fluorescent-protein halves for BiFC are fused to tau; In the published tau-BiFC line these are Venus VN173 and VC155
Method in brief: (§1)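 Tau-BiFC cells were exposed for 48 h to compound (1, 3, 10 μM for screening; 0.03–30 μM for dose-response) plus 30 μM Forskolin to induce aggregation. BiFC fluorescence was normalised to Forskolin-only minus untreated controls, with IC50 from nonlinear regression. Viability was Hoechst-stained nuclei counts relative to Forskolin-only wells.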

Tau-BiFC cells = experiment: Cell viability (cytotoxicity) in tau-BiFC cells, count of stained nuclei; assay type: cell-based; conditions: Forskolin-only group = 100% cell viability; for Cell viability (% @10 μM): compound 10 μM; for Cell viability: compounds marked *: measured at 3 μM
Method in brief: as §1

CYP1A2 = target: T2, CYP1A2 (Homo sapiens, UniProt P05177); experiment: Inhibitory effect on CYP coenzyme activity, human liver microsomes; assay type: in vitro ADME; conditions: compound 10 μM; human liver microsomes 0.25 mg/mL; substrate phenacetin; 15 minutes
T2 construct: human liver microsomes (0.25 mg/mL); from tissue; host or cells: human liver microsomes
T2 sequence (P05177 1-516): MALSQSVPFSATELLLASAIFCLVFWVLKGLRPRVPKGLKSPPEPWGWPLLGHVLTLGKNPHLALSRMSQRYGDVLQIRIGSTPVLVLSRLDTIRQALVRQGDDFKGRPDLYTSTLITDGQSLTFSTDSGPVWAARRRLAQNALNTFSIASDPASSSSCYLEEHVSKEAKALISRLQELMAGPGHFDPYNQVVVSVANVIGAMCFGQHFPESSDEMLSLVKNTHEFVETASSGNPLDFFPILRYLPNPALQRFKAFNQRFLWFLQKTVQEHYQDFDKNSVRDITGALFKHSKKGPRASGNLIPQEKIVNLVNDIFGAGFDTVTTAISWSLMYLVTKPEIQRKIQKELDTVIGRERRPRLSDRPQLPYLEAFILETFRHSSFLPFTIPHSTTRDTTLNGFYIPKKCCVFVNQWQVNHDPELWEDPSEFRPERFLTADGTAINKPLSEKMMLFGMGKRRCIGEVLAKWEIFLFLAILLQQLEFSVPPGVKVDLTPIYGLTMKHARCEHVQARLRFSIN
Procedure: (§2) The inhibitory effects of the compounds prepared according to Examples 1 to 175 on CYP coenzyme activity were identified. Specifically, human liver microsomes (0.25 mg/mL), a 0.1 M phosphate buffer solution (pH 7.4), a substrate drug cocktail of five types of drug metabolism enzymes (50 μM phenacetin, 10 μM diclofenac, 100 μM S-mephenytoin, 5 μM dextromethorphan, and 2.5 μM midazolam), and the compound at a concentration of 0 μM or 10 μM were mixed and pre-cultured at 37° C. for 5 minutes, and then further cultured at 37° C. for 15 minutes together with an NADPH generation system solution added thereto. Thereafter, the reaction was terminated by adding an acetonitrile solution containing an internal standard material (terfenadine) and centrifuged for 5 minutes (14,000 rpm, 4° C.), and then a supernatant was injected into an LC-MS/MS system for simultaneous analysis of metabolites of the substrate drugs to thereby evaluate the inhibitory effects on drug metabolism.
(§3) Metabolites of each CYP coenzyme indicator drug generated through the reaction were analyzed using the Shimadzu Nexera XR system and TSQ Vantage (Thermo). In an HPLC column, Kinetex C18 (2.1 mm×100 mm, 2.6 μm, particle size; Phenomenex, USA) was used, and mobile phases were (A) distilled water containing 0.1% formic acid and (B) acetonitrile containing 0.1% formic acid, and a gradient program shown in Table 3 was applied thereto.
(§4) The generated metabolites were quantified using a multiple reaction monitoring (MRM) quantification mode, and Xcalibur (version 1.6.1) was used for data analysis. Inhibitory effects of the novel compound prepared according to the examples of the present invention on CYP coenzyme activity are shown in Table 4 below.

CYP2C19 = target: T3, CYP2C19 (Homo sapiens, UniProt P33261); experiment: as above; assay type: in vitro ADME; conditions: compound 10 μM; human liver microsomes 0.25 mg/mL; substrate S-mephenytoin; 15 minutes
T3 construct: human liver microsomes (0.25 mg/mL); from tissue; host or cells: human liver microsomes
Procedure: as §2, §3, §4

CYP2C9 = target: T4, CYP2C9 (Homo sapiens, UniProt P11712); experiment: as above; assay type: in vitro ADME; conditions: compound 10 μM; human liver microsomes 0.25 mg/mL; substrate diclofenac; 15 minutes
T4 construct: human liver microsomes (0.25 mg/mL); from tissue; host or cells: human liver microsomes
Procedure: as §2, §3, §4

CYP2D6 = target: T5, CYP2D6 (Homo sapiens, UniProt P10635); experiment: as above; assay type: in vitro ADME; conditions: compound 10 μM; human liver microsomes 0.25 mg/mL; substrate dextromethorphan; 15 minutes
T5 construct: human liver microsomes (0.25 mg/mL); from tissue; host or cells: human liver microsomes
Procedure: as §2, §3, §4

CYP3A4 = target: T6, CYP3A4 (Homo sapiens, UniProt P08684); experiment: as above; assay type: in vitro ADME; conditions: compound 10 μM; human liver microsomes 0.25 mg/mL; substrate midazolam; 15 minutes
T6 construct: human liver microsomes (0.25 mg/mL); from tissue; host or cells: human liver microsomes
Procedure: as §2, §3, §4

[1] = Liver microsome stability; assay type: in vitro ADME, human; conditions: amount of substrate remaining; compound 1 μM, 30 minutes, 37° C., NADPH
Procedure: (§5) The stability of liver microsomes due to the compounds prepared according to Examples 1 to 175 was confirmed. Specifically, four types of liver microsomes (human, dog, rat, and mouse, each 0.25 mg/mL), a 0.1 M phosphate buffer solution (pH 7.4), and each of the compounds at a concentration of 1 μM were mixed and pre-cultured at 37° C. for 5 minutes and further cultured at 37° C. for 30 minutes together with an NADPH generation system solution added thereto. Thereafter, the reaction was terminated by adding an acetonitrile solution containing an internal standard material (chloropropamide) and centrifuged for 5 minutes (14,000 rpm, 4° C.), and then a supernatant was injected into an LC-MS/MS system for analysis of substrate drugs to thereby evaluate metabolic stability due to 8 types of compounds.
(§6) The amount of the substrate remaining after the reaction was analyzed using the Shimadzu Nexera XR system and TSQ Vantage (Thermo). In an HPLC column, Kinetex XB-C18 (2.1 mm×100 mm, particle size of 2.6 μm; Phenomenex, USA) was used, and mobile phases were (A) distilled water containing 0.1% formic acid and (B) acetonitrile containing 0.1% formic acid. Analyst software (version 1.6.3) and Xcalibur (version 1.6.1) were used for data analysis.

[2] = Liver microsome stability; assay type: in vitro ADME, dog; conditions: amount of substrate remaining; compound 1 μM, 30 minutes, 37° C., NADPH
Procedure: as §5, §6

[3] = Liver microsome stability; assay type: in vitro ADME, rat; conditions: amount of substrate remaining; compound 1 μM, 30 minutes, 37° C., NADPH
Procedure: as §5, §6

[4] = Liver microsome stability; assay type: in vitro ADME, mouse; conditions: amount of substrate remaining; compound 1 μM, 30 minutes, 37° C., NADPH
Procedure: as §5, §6

T3 sequence (P33261 whole entry): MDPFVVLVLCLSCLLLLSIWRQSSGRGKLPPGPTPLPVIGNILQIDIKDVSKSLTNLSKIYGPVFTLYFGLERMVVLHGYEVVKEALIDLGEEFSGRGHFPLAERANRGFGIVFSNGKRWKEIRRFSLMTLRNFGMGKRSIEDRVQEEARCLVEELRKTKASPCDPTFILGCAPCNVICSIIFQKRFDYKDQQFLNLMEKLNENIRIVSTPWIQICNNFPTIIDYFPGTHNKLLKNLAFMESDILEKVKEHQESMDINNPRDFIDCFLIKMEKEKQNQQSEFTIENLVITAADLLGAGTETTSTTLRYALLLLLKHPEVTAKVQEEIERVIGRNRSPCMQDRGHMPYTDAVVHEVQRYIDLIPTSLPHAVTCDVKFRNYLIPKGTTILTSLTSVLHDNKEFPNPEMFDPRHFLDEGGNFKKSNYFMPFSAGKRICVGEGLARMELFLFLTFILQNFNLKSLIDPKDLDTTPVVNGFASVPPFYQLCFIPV
T5 sequence (P10635 whole entry): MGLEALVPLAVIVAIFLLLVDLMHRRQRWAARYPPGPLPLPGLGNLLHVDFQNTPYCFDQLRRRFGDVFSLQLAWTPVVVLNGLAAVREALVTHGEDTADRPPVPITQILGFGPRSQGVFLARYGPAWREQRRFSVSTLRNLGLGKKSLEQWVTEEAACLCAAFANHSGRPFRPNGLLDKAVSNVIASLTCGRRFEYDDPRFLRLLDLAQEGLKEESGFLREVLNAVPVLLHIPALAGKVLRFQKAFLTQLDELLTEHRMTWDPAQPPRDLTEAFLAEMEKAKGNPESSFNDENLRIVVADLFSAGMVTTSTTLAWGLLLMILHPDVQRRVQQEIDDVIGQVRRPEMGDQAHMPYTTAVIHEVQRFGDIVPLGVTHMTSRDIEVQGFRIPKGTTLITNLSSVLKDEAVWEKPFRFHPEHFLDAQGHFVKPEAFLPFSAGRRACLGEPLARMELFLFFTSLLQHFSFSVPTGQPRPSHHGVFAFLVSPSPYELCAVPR
T6 sequence (P08684 whole entry): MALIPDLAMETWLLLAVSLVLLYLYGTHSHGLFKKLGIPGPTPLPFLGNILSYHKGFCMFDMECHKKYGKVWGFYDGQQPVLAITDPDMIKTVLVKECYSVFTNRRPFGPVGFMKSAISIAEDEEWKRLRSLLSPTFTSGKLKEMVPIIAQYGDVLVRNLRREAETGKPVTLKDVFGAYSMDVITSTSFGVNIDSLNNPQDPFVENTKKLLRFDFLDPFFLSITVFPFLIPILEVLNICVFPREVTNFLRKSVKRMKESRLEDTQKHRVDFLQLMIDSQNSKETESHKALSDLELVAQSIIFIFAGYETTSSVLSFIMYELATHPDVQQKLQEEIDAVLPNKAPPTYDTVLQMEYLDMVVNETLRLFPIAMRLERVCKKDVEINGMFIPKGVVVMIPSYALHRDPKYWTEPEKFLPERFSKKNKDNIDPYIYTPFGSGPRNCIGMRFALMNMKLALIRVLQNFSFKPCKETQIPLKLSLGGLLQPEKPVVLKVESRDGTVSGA
T1 sequence (P10636 2-441 isoform P10636-8 limits assumed): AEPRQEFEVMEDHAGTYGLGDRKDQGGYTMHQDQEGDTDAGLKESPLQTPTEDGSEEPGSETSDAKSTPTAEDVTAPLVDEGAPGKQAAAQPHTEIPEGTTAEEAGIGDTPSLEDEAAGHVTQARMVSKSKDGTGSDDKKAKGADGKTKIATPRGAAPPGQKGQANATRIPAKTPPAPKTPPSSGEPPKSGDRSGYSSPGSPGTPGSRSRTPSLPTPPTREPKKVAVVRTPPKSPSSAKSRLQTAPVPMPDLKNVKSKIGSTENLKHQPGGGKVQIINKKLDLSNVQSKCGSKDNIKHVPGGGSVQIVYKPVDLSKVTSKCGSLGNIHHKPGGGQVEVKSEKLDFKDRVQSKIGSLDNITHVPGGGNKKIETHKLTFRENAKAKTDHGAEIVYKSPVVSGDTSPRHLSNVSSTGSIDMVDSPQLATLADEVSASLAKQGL
T4 sequence (P11712 whole entry): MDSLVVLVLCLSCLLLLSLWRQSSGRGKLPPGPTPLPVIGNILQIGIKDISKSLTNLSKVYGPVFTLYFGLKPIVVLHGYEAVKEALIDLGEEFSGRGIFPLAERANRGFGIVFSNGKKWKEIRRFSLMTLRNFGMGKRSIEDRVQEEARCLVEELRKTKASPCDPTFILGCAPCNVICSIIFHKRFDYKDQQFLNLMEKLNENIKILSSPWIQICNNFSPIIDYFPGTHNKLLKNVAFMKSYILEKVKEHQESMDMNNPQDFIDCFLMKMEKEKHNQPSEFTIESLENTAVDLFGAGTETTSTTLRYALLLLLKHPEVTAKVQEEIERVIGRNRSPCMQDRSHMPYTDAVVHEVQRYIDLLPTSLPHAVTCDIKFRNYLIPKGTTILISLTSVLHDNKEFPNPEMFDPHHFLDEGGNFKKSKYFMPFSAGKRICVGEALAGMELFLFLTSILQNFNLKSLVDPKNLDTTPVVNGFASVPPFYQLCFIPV

Structure (SMILES)	remaining activity at 10 µM (tau protein) [%]	IC50 (tau protein) [nM]	Cell viability (% @10 μM) (Tau-BiFC cells) [%]	CYP1A2 (CYP1A2)	CYP2C19 (CYP2C19)	CYP2C9 (CYP2C9)	CYP2D6 (CYP2D6)	CYP3A4 (CYP3A4)	Human (%) [1] [%]	Dog (%) [2] [%]	Rat (%) [3] [%]	Mouse (%) [4] [%]	remaining activity at 3 µM (tau protein) [%]	Cell viability (Tau-BiFC cells) [%]
N#CC(C#N)=NNc1ccc(NC(=O)c2cccs2)nc1 [Compound 30, (6-(thiophene-2-carboxamido)pyridin-3-yl)carbonohydrazonoyl dicyanide]	0	80	145	83.9	81.5	62.9	89.9	95.2	94.8	84.7	72.4	70.7		
N#CC(C#N)=NNc1ccc(NC(=O)c2ccoc2)nc1 [Compound 110, (6-(furan-3-carboxamido)pyridin-3-yl)carbonohydrazonoyl dicyanide]	0	790	160.5	88.3	88.4	77.1	91.3	98.9	89.7		81.8	92.4		
Cc1cc(NN=C(C#N)C#N)ccc1OCc1cnccn1 [Compound 144, (3-methyl-4-(pyrazin-2-ylmethoxy)phenyl)carbonohydrazonoyl dicyanide]		1280		37.7	>100	24.5	>100	89.2	74.9		92.4	80.9	-20	111
Cc1cc(NN=C(C#N)C#N)ccc1OCc1cscn1 [Compound 152, (3-methyl-4-(thiazol-4-ylmethoxy)phenyl)carbonohydrazonoyl dicyanide]		54		75.5	95	17.2	96.1	>100	73.2		72.3	56.6	-37	117
Cc1cc(NN=C(C#N)C#N)ccc1OCc1nc2ccccc2[nH]1 [Compound 146, (4-((1H-benzo[d]imidazol-2-yl)methoxy)-3-methylphenyl)carbonohydrazonoyl dicyanide]		444		>100	88.4	47.2	>100	82.7	64.6		31.1	70.5	-35	133
Cc1cc(NN=C(C#N)C#N)ccc1OCc1nc2ccccc2o1 [Compound 156, (4-(benzo[d]oxazol-2-ylmethoxy)-3-methylphenyl)carbonohydrazonoyl dicyanide]		50		95.9	83.7	54	96	92.6	49.3		55.5	41.3	-29	124
N#CC(C#N)=NNc1ccc(Oc2ccccc2)nc1 [Compound 68, (6-phenoxypyridin-3-yl)carbonohydrazonoyl dicyanide]	0	110	117						6.7	87.8	63	93.6		
COc1cc(NN=C(C#N)C#N)ccc1C(=O)Nc1cnc(C)cn1 [Compound 104, (3-methoxy-4-(5-methylpyrazin-2-ylcarbamoyl)phenyl)carbonohydrazonoyl dicyanide]	0	260	142	78.4	82.4	48.6	>100	66.1	84.1		87.5	97.2		
N#CC(C#N)=NNc1ccc(NC(=O)c2cccc(C(F)(F)F)c2)nc1 [Compound 26, (6-(3-(trifluoromethyl)benzamido)pyridin-3-yl)carbonohydrazonoyl dicyanide]	0	710	109.8						72.5	29.8	19.8	7.1		
N#CC(C#N)=NNc1ccc(Oc2cccc(F)c2)nc1 [Compound 69, (6-(3-fluorophenoxy)pyridin-3-yl)carbonohydrazonoyl dicyanide]	0	260	119.4						8.4	94.8	75.6	81.6		
Cc1cc(NN=C(C#N)C#N)ccc1OCc1cccnc1 [Compound 145, (3-methyl-4-(pyridin-3-ylmethoxy)phenyl)carbonohydrazonoyl dicyanide]		126		5.3	46.5	2.2	39.1	22	93.7		91.2	93.3	-49	95
